Counter-ions that a name gives are not always drawn.
These molecules were tested against human SPR (Homo sapiens (Human), UniProt P35270) (assay: Evaluation Example 2: Measurement of human SPR inhibitory activity (seven concentrations, sepiapterin absorbance at 420 nm)). Details: Evaluation Example 2, seven concentrations 0.14 nM to 100 nM, 240 minutes at room temperature, read-out: IC50.
Type: biochemical
Procedure, shortened: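 His-tagged full-length human SPR (1-261) was expressed in E. coli and the tag removed. Enzyme at 150 ng/mL in 100 mM Tris-HCl pH 7.5/0.01% BSA was mixed with compound (0.14–100 nM, seven points), 120 μM sepiapterin and 160 μM NADPH, both as added-solution concentrations. After 240 min at room temperature, remaining sepiapterin was read at 420 nm to give percent inhibition.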

human SPR, sequence (P35270 whole entry): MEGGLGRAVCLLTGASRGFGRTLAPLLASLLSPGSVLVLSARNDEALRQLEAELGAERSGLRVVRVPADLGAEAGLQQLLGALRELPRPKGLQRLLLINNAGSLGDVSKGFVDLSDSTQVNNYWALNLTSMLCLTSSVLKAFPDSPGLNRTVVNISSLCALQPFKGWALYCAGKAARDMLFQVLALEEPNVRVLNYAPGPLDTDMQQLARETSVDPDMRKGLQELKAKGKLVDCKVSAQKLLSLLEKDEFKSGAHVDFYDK

Point of comparison: CC(C)(C)Cn1c(=O)c(C(=O)NC2CC2)c(O)n2nc(-c3ccccn3)cc12 [Synthesis Example 299, N-Cyclopropyl-7-hydroxy-4-neopentyl-5-oxo-2-(pyridin-2-yl)-4,5-dihydropyrazolo[1,5-a]pyrimidine-6-carboxamide], IC50 6.43 nM. Against it:
- CC(C)(C)Cn1c(=O)c(C(=O)NC2CC2)c(O)n2nc(-c3cc(F)cnc3N)cc12 [Synthesis Example 285, 2-(2-Amino-5-fluoropyridin-3-yl)-N-cyclopropyl-7-hydroxy-4-neopentyl-5-oxo-4,5-dihydropyrazolo[1,5-a]pyrimidine-6-carboxamide] — 2-fold lower, 3.28 nM
- CC(C)(C)Cn1c(=O)c(C(=O)NC2CC2)c(O)n2nc(-c3cn[nH]c3)cc12 [Synthesis Example 286, N-Cyclopropyl-7-hydroxy-4-neopentyl-5-oxo-2-(1H-pyrazol-4-yl)-4,5-dihydropyrazolo[1,5-a]pyrimidine-6-carboxamide] — 4.2-fold lower, 1.54 nM
- Cc1cn[nH]c1-c1cc2n(CC(C)(C)C)c(=O)c(C(=O)NC3CC3)c(O)n2n1 [Synthesis Example 287, N-Cyclopropyl-7-hydroxy-2-(4-methyl-1H-pyrazol-5-yl)-4-neopentyl-5-oxo-4,5-dihydropyrazolo[1,5-a]pyrimidine-6-carboxamide] — 2.5-fold lower, 2.53 nM
- CC(C)(C)Cn1c(=O)c(C(=O)NC2CC2)c(O)n2nc(-c3cncnc3)cc12 [Synthesis Example 288, N-Cyclopropyl-7-hydroxy-4-neopentyl-5-oxo-2-(pyrimidin-5-yl)-4,5-dihydropyrazolo[1,5-a]pyrimidine-6-carboxamide] — 4.7-fold lower, 1.37 nM
- CC(C)(C)Cn1c(=O)c(C(=O)NC2CC2)c(O)n2nc(-c3cnc(N)nc3)cc12 [Synthesis Example 289, 2-(2-Aminopyrimidin-5-yl)-N-cyclopropyl-7-hydroxy-4-neopentyl-5-oxo-4,5-dihydropyrazolo[1,5-a]pyrimidine-6-carboxamide] — 3.1-fold lower, 2.05 nM
- Nc1ncccc1-c1cc2n(CC3CCOCC3)c(=O)c(C(=O)NC3CC3)c(O)n2n1 [Synthesis Example 290, 2-(2-Aminopyridin-3-yl)-N-cyclopropyl-7-hydroxy-5-oxo-4-((tetrahydro-2H-pyran-4-yl)methyl)-4,5-dihydropyrazolo[1,5-a]pyrimidine-6-carboxamide] — 6.9-fold lower, 0.93 nM
- CC(C)(C)Cn1c(=O)c(C(=O)NC2CC2)c(O)n2nc(-c3cc(C#N)cnc3N)cc12 [Synthesis Example 291, 2-(2-Amino-5-cyanopyridin-3-yl)-N-cyclopropyl-7-hydroxy-4-neopentyl-5-oxo-4,5-dihydropyrazolo[1,5-a]pyrimidine-6-carboxamide] — within 1.5-fold, 6.42 nM
- CC(C)(C)Cn1c(=O)c(C(=O)NC2CC2)c(O)n2nc(-c3n[nH]cc3C#N)cc12 [Synthesis Example 292, 2-(4-Cyano-1H-pyrazol-3-yl)-N-cyclopropyl-7-hydroxy-4-neopentyl-5-oxo-4,5-dihydropyrazolo[1,5-a]pyrimidine-6-carboxamide] — 4.9-fold lower, 1.32 nM
- CC(C)(C)Cn1c(=O)c(C(=O)NC2CC2)c(O)n2nc(-c3cccnc3C#N)cc12 [Synthesis Example 293, 2-(2-Cyanopyridin-3-yl)-N-cyclopropyl-7-hydroxy-4-neopentyl-5-oxo-4,5-dihydropyrazolo[1,5-a]pyrimidine-6-carboxamide] — 2.9-fold lower, 2.24 nM
- CC(C)(C)Cn1c(=O)c(C(=O)NC2CC2)c(O)n2nc(-c3cnccc3C#N)cc12 [Synthesis Example 294, 2-(4-Cyanopyridin-3-yl)-N-cyclopropyl-7-hydroxy-4-neopentyl-5-oxo-4,5-dihydropyrazolo[1,5-a]pyrimidine-6-carboxamide] — 2.8-fold lower, 2.26 nM
- CC(C)(C)Cn1c(=O)c(C(=O)NC2CC2)c(O)n2nc(-c3cnccc3F)cc12 [Synthesis Example 295, N-Cyclopropyl-2-(4-fluoropyridin-3-yl)-7-hydroxy-4-neopentyl-5-oxo-4,5-dihydropyrazolo[1,5-a]pyrimidine-6-carboxamide] — 2.6-fold lower, 2.48 nM
- CC(C)(C)Cn1c(=O)c(C(=O)NC2CC2)c(O)n2nc(-c3cc(C#N)n[nH]3)cc12 [Synthesis Example 296, 2-(3-Cyano-1H-pyrazol-5-yl)-N-cyclopropyl-7-hydroxy-4-neopentyl-5-oxo-4,5-dihydropyrazolo[1,5-a]pyrimidine-6-carboxamide] — 2.2-fold lower, 2.93 nM
- CC(C)(C)Cn1c(=O)c(C(=O)NC2CC2)c(O)n2nc(-c3cccnc3C(F)F)cc12 [Synthesis Example 297, N-Cyclopropyl-2-(2-(difluoromethyl)pyridin-3-yl)-7-hydroxy-4-neopentyl-5-oxo-4,5-dihydropyrazolo[1,5-a]pyrimidine-6-carboxamide] — 1.9-fold lower, 3.32 nM
- CC(C)(C)Cn1c(=O)c(C(=O)NC2CC2)c(O)n2nc(-c3n[nH]cc3C(F)(F)F)cc12 [Synthesis Example 298, N-Cyclopropyl-7-hydroxy-4-neopentyl-5-oxo-2-(4-(trifluoromethyl)-1H-pyrazol-3-yl)-4,5-dihydropyrazolo[1,5-a]pyrimidine-6-carboxamide] — 2.1-fold lower, 3.11 nM
- COc1cnc(-c2cc3n(CC(C)(C)C)c(=O)c(C(=O)NC4CC4)c(O)n3n2)cn1 [Synthesis Example 300, N-Cyclopropyl-7-hydroxy-2-(5-methoxypyrazin-2-yl)-4-neopentyl-5-oxo-4,5-dihydropyrazolo[1,5-a]pyrimidine-6-carboxamide] — within 1.5-fold, 9.44 nM
- CC(C)(C)Cn1c(=O)c(C(=O)NC2CC2)c(O)n2nc(-c3cn[nH]c3C#N)cc12 [Synthesis Example 301] — 5.3-fold lower, 1.22 nM
- CC(C)(C)Cn1c(=O)c(C(=O)NC2CC2)c(O)n2nc(-c3cnccn3)cc12 [Synthesis Example 302, N-Cyclopropyl-7-hydroxy-4-neopentyl-5-oxo-2-(pyrazin-2-yl)-4,5-dihydropyrazolo[1,5-a]pyrimidine-6-carboxamide] — 2.4-fold lower, 2.69 nM
- Cc1cnc(-c2cc3n(CC(C)(C)C)c(=O)c(C(=O)NC4CC4)c(O)n3n2)cn1 [Synthesis Example 303, N-Cyclopropyl-7-hydroxy-2-(5-methylpyrazin-2-yl)-4-neopentyl-5-oxo-4,5-dihydropyrazolo[1,5-a]pyrimidine-6-carboxamide] — 2.5-fold lower, 2.58 nM
- CC(C)(C)Cn1c(=O)c(C(=O)NC2CC2)c(O)n2nc(-c3cnc(F)cn3)cc12 [Synthesis Example 304, N-Cyclopropyl-2-(5-fluoropyrazin-2-yl)-7-hydroxy-4-neopentyl-5-oxo-4,5-dihydropyrazolo[1,5-a]pyrimidine-6-carboxamide] — 2.1-fold lower, 3 nM
- CC(C)(C)Cn1c(=O)c(C(=O)NC2CC2)c(O)n2nc(-c3[nH]ncc3Cl)cc12 [Synthesis Example 305, 2-(4-Chloro-1H-pyrazol-5-yl)-N-cyclopropyl-7-hydroxy-4-neopentyl-5-oxo-4,5-dihydropyrazolo[1,5-a]pyrimidine-6-carboxamide] — 2.9-fold lower, 2.24 nM
- CC(C)(C)Cn1c(=O)c(C(=O)NC2CC2)c(O)n2nc(-c3n[nH]c4ncccc34)cc12 [Synthesis Example 306] — within 1.5-fold, 9.43 nM
- CC(C)(C)Cn1c(=O)c(C(=O)NC2CC2)c(O)n2nc(-c3n[nH]c4ccncc34)cc12 [Synthesis Example 307, N-Cyclopropyl-7-hydroxy-4-neopentyl-5-oxo-2-(1H-pyrazolo[4,3-c]pyridin-3-yl 4,5-dihydropyrazolo[1,5-a]pyrimidine-6-carboxamide hydrochloride] — 2.1-fold lower, 3.03 nM
- CNc1ccncc1-c1cc2n(CC(C)(C)C)c(=O)c(C(=O)NC3CC3)c(O)n2n1 [Synthesis Example 308, N-Cyclopropyl-7-hydroxy-2-(4-(methylamino)pyridin-3-yl)-4-neopentyl-5-oxo-4,5-dihydropyrazolo[1,5-a]pyrimidine-6-carboxamide] — 1.8-fold lower, 3.6 nM
- CNc1ncccc1-c1cc2n(CC(C)(C)C)c(=O)c(C(=O)NC3CC3)c(O)n2n1 [Synthesis Example 309, N-Cyclopropyl-7-hydroxy-2-(2-(methylamino)pyridin-3-yl)-4-neopentyl-5-oxo-4,5-dihydropyrazolo[1,5-a]pyrimidine-6-carboxamide] — 3.6-fold higher, 22.9 nM
- Cn1cc(-c2cc3n(CC(C)(C)C)c(=O)c(C(=O)NC4CC4)c(O)n3n2)c(C(N)=O)n1 [Synthesis Example 310, 2-(3-Carbamoyl-1-methyl-1H-pyrazol-4-yl)-N-cyclopropyl-7-hydroxy-4-neopentyl-5-oxo-4,5-dihydropyrazolo[1,5-a]pyrimidine-6-carboxamide] — 2.6-fold lower, 2.47 nM
- CC(C)(C)Cn1c(=O)c(C(=O)NC2CC2)c(O)n2nc(-c3[nH]ncc3C(=O)N3CCOCC3)cc12 [Synthesis Example 311, N-Cyclopropyl-7-hydroxy-2-(4-(morpholine-4-carbonyl)-1H-pyrazol-5-yl)-4-neopentyl-5-oxo-4,5-dihydropyrazolo[1,5-a]pyrimidine-6-carboxamide] — 5.3-fold lower, 1.21 nM
- CC(C)(C)Cn1c(=O)c(C(=O)NC2CC2)c(O)n2nc(-c3c[nH]nc3C(N)=O)cc12 [Synthesis Example 312, 2-(3-Carbamoyl-1H-pyrazol-4-yl)-N-cyclopropyl-7-hydroxy-4-neopentyl-5-oxo-4,5-dihydropyrazolo[1,5-a]pyrimidine-6-carboxamide] — 4.9-fold lower, 1.3 nM
- CC(C)(C)Cn1c(=O)c(C(=O)NC2CC2)c(O)n2nc(-c3[nH]ncc3C(=O)N3CCC(F)(F)CC3)cc12 [Synthesis Example 313, N-Cyclopropyl-2-(4-(4,4-difluoropiperidine-1-carbonyl)-1H-pyrazol-5-yl)-7-hydroxy-4-neopentyl-5-oxo-4,5-dihydropyrazolo[1,5-a]pyrimidine-6-carboxamide hydrochloride] — 5.6-fold lower, 1.15 nM
- CN(C)C(=O)c1cn[nH]c1-c1cc2n(CC(C)(C)C)c(=O)c(C(=O)NC3CC3)c(O)n2n1 [Synthesis Example 314, N-Cyclopropyl-2-(4-(dimethylcarbamoyl)-1H-pyrazol-5-yl)-7-hydroxy-4-neopentyl-5-oxo-4,5-dihydropyrazolo[1,5-a]pyrimidine-6-carboxamide hydrochloride] — 6.9-fold lower, 0.93 nM

Reference: patent US20240092784A1, “CONDENSED HETEROCYCLIC COMPOUND” (NISSAN CHEMICAL CORPORATION, priority 2020, published 2024)
